Results from paper PMC4730229, “Benzobisthiazoles Represent a Novel Scaffold for Kinase Inhibitors of CLK Family Members” (Biochemistry, 2015).

Tests used:
[1] = target: ASK1 (Homo sapiens, UniProt Q99683); assay: Kinase profiling (radioactive filter binding); assay type: biochemical; details: 1 uM compound
Procedure: (§1) 3A5 and 5E4 were sent to the International Centre for Kinase Profiling at the MRC Protein Phosphorylation and Ubiquitylation Unit for profiling (as described in ref ([17])). Compounds were profiled against 140 kinases using a radioactive ([^33P]ATP) filter binding assay at a concentration of 1 μM. Results were obtained as inhibition of kinase activity and are listed in Supplementary Table 2.

[2] = target: CDK9-Cyclin T1 (Homo sapiens, UniProt P50750); assay: Kinase profiling (radioactive filter binding); assay type: biochemical; details: 1 uM compound
Procedure: as §1

[3] = target: CK1γ2 (Homo sapiens, UniProt P78368); assay: Kinase profiling (radioactive filter binding); assay type: biochemical; details: 1 uM compound
Procedure: as §1

[4] = target: CSK (Homo sapiens, UniProt P41240); assay: Kinase profiling (radioactive filter binding); assay type: biochemical; details: 1 uM compound
Chain of CSK (P41240 whole entry): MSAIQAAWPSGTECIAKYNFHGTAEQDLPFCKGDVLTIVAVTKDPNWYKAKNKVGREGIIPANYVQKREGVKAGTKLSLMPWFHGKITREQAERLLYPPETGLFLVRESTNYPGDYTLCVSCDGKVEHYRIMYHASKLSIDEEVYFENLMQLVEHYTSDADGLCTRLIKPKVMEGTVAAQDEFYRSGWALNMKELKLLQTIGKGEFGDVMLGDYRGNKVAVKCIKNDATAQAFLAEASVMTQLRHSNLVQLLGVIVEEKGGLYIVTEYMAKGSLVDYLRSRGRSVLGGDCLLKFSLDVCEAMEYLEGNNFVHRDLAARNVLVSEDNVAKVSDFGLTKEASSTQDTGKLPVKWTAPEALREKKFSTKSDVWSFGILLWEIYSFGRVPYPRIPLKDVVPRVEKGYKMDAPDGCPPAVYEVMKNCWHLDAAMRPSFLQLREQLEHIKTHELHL
Procedure: as §1

[5] = target: FGF-R1 (Homo sapiens, UniProt P11362); assay: Kinase profiling (radioactive filter binding); assay type: biochemical; details: 1 uM compound
Chain of FGF-R1 (P11362 22-822): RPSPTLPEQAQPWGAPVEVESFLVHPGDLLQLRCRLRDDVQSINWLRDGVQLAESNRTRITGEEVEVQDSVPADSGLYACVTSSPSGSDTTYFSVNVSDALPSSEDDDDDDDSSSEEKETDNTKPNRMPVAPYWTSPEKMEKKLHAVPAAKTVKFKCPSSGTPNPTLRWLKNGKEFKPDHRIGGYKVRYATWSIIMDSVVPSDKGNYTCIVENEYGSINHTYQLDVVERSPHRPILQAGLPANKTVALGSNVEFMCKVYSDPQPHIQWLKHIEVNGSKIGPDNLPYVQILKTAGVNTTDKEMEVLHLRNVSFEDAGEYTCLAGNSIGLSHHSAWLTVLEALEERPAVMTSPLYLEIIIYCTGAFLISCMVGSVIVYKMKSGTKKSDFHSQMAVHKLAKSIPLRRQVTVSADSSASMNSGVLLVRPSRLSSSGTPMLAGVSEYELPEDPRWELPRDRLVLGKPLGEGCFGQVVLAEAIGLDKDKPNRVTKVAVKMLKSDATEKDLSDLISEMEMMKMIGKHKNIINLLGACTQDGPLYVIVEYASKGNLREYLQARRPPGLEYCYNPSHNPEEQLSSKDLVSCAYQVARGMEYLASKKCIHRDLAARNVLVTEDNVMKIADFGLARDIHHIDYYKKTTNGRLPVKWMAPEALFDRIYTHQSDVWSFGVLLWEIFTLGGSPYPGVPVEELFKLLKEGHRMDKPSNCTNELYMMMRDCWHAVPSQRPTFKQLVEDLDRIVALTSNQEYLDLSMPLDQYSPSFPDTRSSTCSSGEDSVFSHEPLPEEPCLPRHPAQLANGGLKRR
Procedure: as §1

[6] = target: HIPK2 (Homo sapiens, UniProt Q9H2X6); assay: Kinase profiling (radioactive filter binding); assay type: biochemical; details: 1 uM compound
Procedure: as §1

[7] = target: IKKe (Homo sapiens, UniProt Q14164); assay: Kinase profiling (radioactive filter binding); assay type: biochemical; details: 1 uM compound
Procedure: as §1

[8] = target: JAK2 (Homo sapiens, UniProt O60674); assay: Kinase profiling (radioactive filter binding); assay type: biochemical; details: 1 uM compound
Chain of JAK2 (O60674 whole entry): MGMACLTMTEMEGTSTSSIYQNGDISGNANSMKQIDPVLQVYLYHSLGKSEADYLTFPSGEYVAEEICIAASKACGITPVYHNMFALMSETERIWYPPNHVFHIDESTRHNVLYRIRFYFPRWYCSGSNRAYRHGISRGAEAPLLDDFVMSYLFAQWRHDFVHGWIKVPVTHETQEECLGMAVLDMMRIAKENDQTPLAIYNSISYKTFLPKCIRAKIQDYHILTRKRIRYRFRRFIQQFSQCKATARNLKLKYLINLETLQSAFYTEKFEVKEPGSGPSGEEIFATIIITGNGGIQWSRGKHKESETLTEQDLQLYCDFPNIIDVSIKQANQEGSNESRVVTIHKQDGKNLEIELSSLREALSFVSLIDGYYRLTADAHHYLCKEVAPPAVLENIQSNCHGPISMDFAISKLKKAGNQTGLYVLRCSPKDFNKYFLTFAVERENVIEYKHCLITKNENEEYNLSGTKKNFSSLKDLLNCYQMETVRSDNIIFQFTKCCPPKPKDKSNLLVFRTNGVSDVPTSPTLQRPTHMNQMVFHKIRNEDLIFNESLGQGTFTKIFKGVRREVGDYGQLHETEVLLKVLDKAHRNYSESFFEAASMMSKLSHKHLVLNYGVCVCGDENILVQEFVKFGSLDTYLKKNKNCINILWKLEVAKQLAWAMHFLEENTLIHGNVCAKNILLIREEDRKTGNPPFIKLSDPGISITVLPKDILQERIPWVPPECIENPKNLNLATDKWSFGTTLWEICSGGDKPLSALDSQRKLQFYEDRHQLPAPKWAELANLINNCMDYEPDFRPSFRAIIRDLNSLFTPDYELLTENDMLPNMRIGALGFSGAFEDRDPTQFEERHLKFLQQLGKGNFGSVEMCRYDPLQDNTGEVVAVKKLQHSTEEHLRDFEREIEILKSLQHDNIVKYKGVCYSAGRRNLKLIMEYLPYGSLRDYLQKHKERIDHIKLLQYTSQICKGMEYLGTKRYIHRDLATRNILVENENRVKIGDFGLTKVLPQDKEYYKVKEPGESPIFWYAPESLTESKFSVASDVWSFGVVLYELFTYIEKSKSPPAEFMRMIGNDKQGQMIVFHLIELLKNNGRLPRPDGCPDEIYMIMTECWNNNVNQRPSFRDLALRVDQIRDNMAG
Procedure: as §1

[9] = target: JNK1 (Homo sapiens, UniProt P45983); assay: Kinase profiling (radioactive filter binding); assay type: biochemical; details: 1 uM compound
Procedure: as §1

[10] = target: JNK3 (Homo sapiens, UniProt P53779); assay: Kinase profiling (radioactive filter binding); assay type: biochemical; details: 1 uM compound
Procedure: as §1

[11] = target: MARK3 (Homo sapiens, UniProt P27448); assay: Kinase profiling (radioactive filter binding); assay type: biochemical; details: 1 uM compound
Procedure: as §1

[12] = target: MKK1 (Homo sapiens, UniProt Q02750); assay: Kinase profiling (radioactive filter binding); assay type: biochemical; details: 1 uM compound
Procedure: as §1

[13] = target: MLK1 (Homo sapiens, UniProt P80192); assay: Kinase profiling (radioactive filter binding); assay type: biochemical; details: 1 uM compound
Chain of MLK1 (P80192 whole entry): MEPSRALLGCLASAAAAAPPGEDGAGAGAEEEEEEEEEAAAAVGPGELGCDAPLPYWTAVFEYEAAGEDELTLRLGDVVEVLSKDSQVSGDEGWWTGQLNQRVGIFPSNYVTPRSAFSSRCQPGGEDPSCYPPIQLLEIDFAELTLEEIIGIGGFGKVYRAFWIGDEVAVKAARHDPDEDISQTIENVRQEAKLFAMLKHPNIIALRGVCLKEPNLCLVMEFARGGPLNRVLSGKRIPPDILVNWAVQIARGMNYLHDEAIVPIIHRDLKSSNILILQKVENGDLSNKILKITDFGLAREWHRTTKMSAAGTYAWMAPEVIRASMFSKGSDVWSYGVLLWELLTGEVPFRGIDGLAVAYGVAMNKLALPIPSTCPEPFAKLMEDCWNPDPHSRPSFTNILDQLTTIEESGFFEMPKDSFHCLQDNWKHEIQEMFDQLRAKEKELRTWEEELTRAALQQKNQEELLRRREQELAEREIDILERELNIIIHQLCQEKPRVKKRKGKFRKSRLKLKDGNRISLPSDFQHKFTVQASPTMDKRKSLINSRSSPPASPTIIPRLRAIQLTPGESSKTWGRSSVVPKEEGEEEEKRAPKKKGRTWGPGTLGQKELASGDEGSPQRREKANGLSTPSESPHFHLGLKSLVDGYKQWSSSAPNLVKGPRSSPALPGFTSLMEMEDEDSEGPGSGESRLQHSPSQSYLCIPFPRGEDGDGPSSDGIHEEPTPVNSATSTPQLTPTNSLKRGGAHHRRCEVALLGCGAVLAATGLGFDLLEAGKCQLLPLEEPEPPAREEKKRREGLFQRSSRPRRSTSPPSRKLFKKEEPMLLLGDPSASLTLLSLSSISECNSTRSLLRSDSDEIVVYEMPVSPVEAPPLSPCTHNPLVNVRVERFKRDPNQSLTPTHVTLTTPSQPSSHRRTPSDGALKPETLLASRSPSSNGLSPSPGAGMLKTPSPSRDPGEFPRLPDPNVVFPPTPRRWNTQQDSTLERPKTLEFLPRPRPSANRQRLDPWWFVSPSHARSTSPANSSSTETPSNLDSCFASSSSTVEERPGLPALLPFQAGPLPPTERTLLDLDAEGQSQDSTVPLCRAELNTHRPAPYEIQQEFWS
Procedure: as §1

[14] = target: NEK2a (Homo sapiens, UniProt P51955); assay: Kinase profiling (radioactive filter binding); assay type: biochemical; details: 1 uM compound
Procedure: as §1

[15] = target: NUAK1 (Homo sapiens, UniProt O60285); assay: Kinase profiling (radioactive filter binding); assay type: biochemical; details: 1 uM compound
Procedure: as §1

[16] = target: PAK6 (Homo sapiens, UniProt Q9NQU5); assay: Kinase profiling (radioactive filter binding); assay type: biochemical; details: 1 uM compound
Procedure: as §1

[17] = target: PIM1 (Homo sapiens, UniProt P11309); assay: Kinase profiling (radioactive filter binding); assay type: biochemical; details: 1 uM compound
Chain of PIM1 (P11309 whole entry): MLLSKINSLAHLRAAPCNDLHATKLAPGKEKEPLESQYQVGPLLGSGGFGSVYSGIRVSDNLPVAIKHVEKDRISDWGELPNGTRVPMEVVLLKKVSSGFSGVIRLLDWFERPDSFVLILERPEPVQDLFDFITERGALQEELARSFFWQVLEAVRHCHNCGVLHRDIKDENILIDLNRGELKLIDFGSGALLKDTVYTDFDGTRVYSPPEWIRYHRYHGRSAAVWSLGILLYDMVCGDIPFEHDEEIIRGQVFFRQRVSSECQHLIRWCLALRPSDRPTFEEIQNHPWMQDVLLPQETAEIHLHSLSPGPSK
Procedure: as §1

[18] = target: PIM3 (Homo sapiens, UniProt Q86V86); assay: Kinase profiling (radioactive filter binding); assay type: biochemical; details: 1 uM compound
Procedure: as §1

[19] = target: PKBa (Homo sapiens, UniProt P31749); assay: Kinase profiling (radioactive filter binding); assay type: biochemical; details: 1 uM compound
Chain of PKBa (P31749 whole entry): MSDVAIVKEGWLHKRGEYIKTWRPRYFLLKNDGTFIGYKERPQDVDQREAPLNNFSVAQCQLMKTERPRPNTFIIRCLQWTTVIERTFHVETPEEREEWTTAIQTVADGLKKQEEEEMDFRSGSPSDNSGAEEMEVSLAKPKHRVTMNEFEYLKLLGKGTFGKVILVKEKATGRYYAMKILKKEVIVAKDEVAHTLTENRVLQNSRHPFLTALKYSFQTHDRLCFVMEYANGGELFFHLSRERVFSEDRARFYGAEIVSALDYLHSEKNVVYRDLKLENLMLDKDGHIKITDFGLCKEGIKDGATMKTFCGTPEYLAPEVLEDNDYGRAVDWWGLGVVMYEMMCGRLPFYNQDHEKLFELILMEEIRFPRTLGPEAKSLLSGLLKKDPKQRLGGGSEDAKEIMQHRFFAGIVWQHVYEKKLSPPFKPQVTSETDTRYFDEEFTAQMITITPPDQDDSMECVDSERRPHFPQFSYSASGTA
Procedure: as §1

[20] = target: PKCz (Homo sapiens, UniProt Q05513); assay: Kinase profiling (radioactive filter binding); assay type: biochemical; details: 1 uM compound
Procedure: as §1

[21] = target: PRK2 (Homo sapiens, UniProt Q16513); assay: Kinase profiling (radioactive filter binding); assay type: biochemical; details: 1 uM compound
Procedure: as §1

[22] = target: TAK1 (Homo sapiens, UniProt O43318); assay: Kinase profiling (radioactive filter binding); assay type: biochemical; details: 1 uM compound
Procedure: as §1

[23] = target: TTBK1 (Homo sapiens, UniProt Q5TCY1); assay: Kinase profiling (radioactive filter binding); assay type: biochemical; details: 1 uM compound
Procedure: as §1

[24] = target: YES1 (Homo sapiens, UniProt P07947); assay: Kinase profiling (radioactive filter binding); assay type: biochemical; details: 1 uM compound
Procedure: as §1

[25] = target: ZAP70 (Homo sapiens, UniProt P43403); assay: Kinase profiling (radioactive filter binding); assay type: biochemical; details: 1 uM compound
Chain of ZAP70 (P43403 whole entry): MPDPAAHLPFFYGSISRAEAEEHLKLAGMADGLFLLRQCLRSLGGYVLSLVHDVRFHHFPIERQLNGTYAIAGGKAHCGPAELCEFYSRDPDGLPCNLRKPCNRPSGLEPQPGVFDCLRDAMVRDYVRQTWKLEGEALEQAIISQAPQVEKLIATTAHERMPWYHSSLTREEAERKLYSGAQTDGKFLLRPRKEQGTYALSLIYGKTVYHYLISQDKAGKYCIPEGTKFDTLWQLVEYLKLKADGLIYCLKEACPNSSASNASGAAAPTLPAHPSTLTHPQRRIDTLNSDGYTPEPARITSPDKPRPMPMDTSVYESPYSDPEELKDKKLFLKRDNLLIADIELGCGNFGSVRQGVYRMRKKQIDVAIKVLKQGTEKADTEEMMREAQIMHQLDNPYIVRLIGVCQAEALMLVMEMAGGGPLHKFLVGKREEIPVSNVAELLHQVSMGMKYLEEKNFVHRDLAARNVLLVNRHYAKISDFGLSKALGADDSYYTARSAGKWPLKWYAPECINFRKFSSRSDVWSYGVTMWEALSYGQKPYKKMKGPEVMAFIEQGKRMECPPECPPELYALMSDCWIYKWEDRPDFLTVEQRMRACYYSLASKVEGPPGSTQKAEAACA
Procedure: as §1

[26] = system: AMPK (hum); assay: Kinase profiling (radioactive filter binding); assay type: biochemical, human; details: 1 uM compound
Procedure: as §1

[27] = system: PHK; assay: Kinase profiling (radioactive filter binding); assay type: biochemical, human; details: 1 uM compound
Procedure: as §1

[28] = target: CLK2 (Homo sapiens, UniProt P49760); assay: Kinase inhibition assay, IC50; assay type: biochemical; set-up: cDNA encoding the CLK2 catalytic domain (CLK2cd, amino acids 140–496); made in house; host or cells: Escherichia coli BL21(DE3)-R3-lambda-PPase; details: relative to 3A5

SMILES	ASK1 activity in kinase profiling [1]	CDK9-Cyclin T1 activity in kinase profiling [2]	CK1γ2 activity in kinase profiling [3]	CSK activity in kinase profiling [4]	FGF-R1 activity in kinase profiling [5]	HIPK2 activity in kinase profiling [6]	IKKe activity in kinase profiling [7]	JAK2 activity in kinase profiling [8]	JNK1 activity in kinase profiling [9]	JNK3 activity in kinase profiling [10]	MARK3 activity in kinase profiling [11]	MKK1 activity in kinase profiling [12]	MLK1 activity in kinase profiling [13]	NEK2a activity in kinase profiling [14]	NUAK1 activity in kinase profiling [15]	PAK6 activity in kinase profiling [16]	PIM1 activity in kinase profiling [17]	PIM3 activity in kinase profiling [18]	activity at 1 µM [19]	PKCz activity in kinase profiling [20]	also measured
Cc1nc2ccc3sc(NC(=O)c4ccc5ncsc5c4)nc3c2s1 [3A5, N-(2-methyl[1,3]thiazolo[5,4-e][1,3]benzothiazol-7-yl)-1,3-benzothiazole-6-carboxamide]	59	87	22	93	149	96	107	112	67	107	91	72	73	81	73	96	71	88	123%	115	PRK2 activity in kinase profiling [21]: 95; TAK1 activity in kinase profiling [22]: 87; TTBK1 activity in kinase profiling [23]: 101; YES1 activity in kinase profiling [24]: 112; ZAP70 activity in kinase profiling [25]: 109; AMPK (hum) activity in kinase profiling [26]: 68; PHK activity in kinase profiling [27]: 104
CSc1nc2ccc3nc(NC(=O)c4ccco4)sc3c2s1 [5E4, N-[7-(methylsulfanyl)[1,3]thiazolo[4,5-g][1,3]benzothiazol-2-yl]-2-furamide]	84	88	88	99	109	19	102	105	91	123	83	85	25	83	82	104	96	95	103%	103	PRK2 activity in kinase profiling [21]: 88; TAK1 activity in kinase profiling [22]: 67; TTBK1 activity in kinase profiling [23]: 99; YES1 activity in kinase profiling [24]: 110; ZAP70 activity in kinase profiling [25]: 93; AMPK (hum) activity in kinase profiling [26]: 84; PHK activity in kinase profiling [27]: 110; decrease of inhibition against CLK2 compared to 3A5 [28]: 2–3 fold
